Data reported in patent publication US11548850B2, “Development of a cofilin inhibitor for the treatment of hemorrhagic brain injury-induced neuroinflammation” (The University of Toledo, priority 2019, dated 2023).
“Also recorded” adds a separate entry of the source.

Tests used:
TNF-α = TNF-α ELISA in LPS-challenged HMC3 cells; format: cell-based, human; settings: SZ-3 10 μM and 5 μM
Method: (§1) Cultured HMC3 cells were challenged with 0.1 μg/mL of LPS and treated with different concentrations of SZ-3 concurrently. At the end of the experiment cells were harvested for MTT by CellTiter-Glo Luminescent assay (FIG. 9A), Griess assay for NO release (FIG. 9B), and TNF-α by ELISA (FIG. 9C).
After hemorrhage, activated microglia release proinflammatory mediators such as cytokines, chemokines, and nitric oxide (NO) leading to secondary injury which may be worse than the initial insult and may result in severe neurological deficits and death. In order to test whether the synthesized compound will reduce or stop microglial activation and inflammation after hemorrhage, whether the compound poses toxicity to microglia was first assessed. […]
Next, a NO release assay was performed to determine if SZ-3 can reduce the NO release. […] Next, whether the major inflammatory cytokine TNF-α is reduced with the SZ-3 treatment was evaluated. […]
HMC3 cells (30,000 cells/well in a 96-well plate) were stimulated by LPS ([…]), then treated with DMSO or different concentrations of drug 3 h later. The supernatants were collected after 24 h, and the concentrations of TNF-α were measured using enzyme-linked immunosorbent assay (ELISA) according to the kit's instructions (R&D Systems, Inc.).

HMC3 cells [1] = assay: Thrombin-induced cell death in HMC3 cells; format: cell-based, human; settings: thrombin 100 U/ml, SZ-3 10 μM
Method: (§2) FIG. 11: SZ-3 reduces inflammation through NF-κB mechanism. Cultured HMC3 cells were challenged with thrombin 100 U/ml and after 3 h were treated with different concentrations of SZ-3 (10 and 5 μM). Cells were harvested for WB analysis after 24 h.
(§3) All types of cells used in these examples were assayed for viability and proliferation after 24-72 h using the MTT or CellTiter-Glo Luminescent assay Promega (Madison, Wis.). Cells after treatment were incubated with MTT reagent for 3 h in 5% CO2 at 37° C. The medium was replaced with DMSO to dissolve formazan crystals. Absorbance was read at 570 nm to quantify cell viability. CellTiter-Glo reagents were used in some experiments by adding equal amounts of reagent to the amount of medium containing cells for a 96-well plate. Contents were mixed for 2 minutes then incubated the plate for 10 minutes at room temperature to stabilize luminescent signal.

[2] = Solubility of SZ-3 in the mouse study; format: physicochemical
cofilin [3] = target: cofilin (Homo sapiens, UniProt P23528); assay: In vitro F-actin depolymerization assay; format: biochemical; design: purchased Cytoskeleton, Inc; settings: SZ-3 5 μM, cofilin 0.25 μM, 30 min, rabbit muscle actin, SiR-actin probe
Sequence of cofilin (Homo sapiens, UniProt P23528) (P23528 whole entry): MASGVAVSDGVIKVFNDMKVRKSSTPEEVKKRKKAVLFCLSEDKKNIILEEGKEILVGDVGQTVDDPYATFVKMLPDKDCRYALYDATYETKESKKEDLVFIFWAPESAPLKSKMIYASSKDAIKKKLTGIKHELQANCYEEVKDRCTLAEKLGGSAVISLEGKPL
Method: The inhibitory effect of SZ-3 was tested using an F-actin depolymerization assay. Rabbit muscle actin (Cytoskeleton, Inc.) was reconstituted with general actin and incubated on ice for 30 min to depolymerize any existing actin oligomers. Cofilin (Cytoskeleton, Inc.) at 0.25 μM and SZ-3 (5 μM) were added together to the corresponding vials and incubated for 30 min to ensure cofilin depolymerization and efficacy of the SZ-3. SiR-actin probe (Cytoskeleton, Inc.) was added at 50 nM and incubated for 1 h to visualize actin filaments. Finally, 5-10 μl of each group was added to a slide and imaged with fluorescent microscope at 652 nm.
Cofilin inhibition with SZ-3 was tested using an f-actin depolymerization high-throughput screening assay.
SZ-3 inhibitory effect on cofilin was tested using F-actin depolymerization assay. Briefly, rabbit muscle actin (Cytoskeleton, Inc.) was reconstituted with general actin buffer to 40 μM (stock) and incubated on ice for 30 min to depolymerize any existing actin oligomers. Next, actin stock solution was further diluted to a 1 μM working solution and then polymerized into filaments with the addition of 1/10 th the volume of actin polymerization buffer (Cytoskeleton, Inc.). The mix was incubated at room temperature for 1 h to ensure optimum polymerization. […]

SHSY cells [4] = assay: Toxicity of SZ-3 in cultured SHSY cells (MTT); format: cell-based; settings: different concentrations of SZ-3, 5-20 μM range
Method: (§4) The synthesized SZ-3 compound was tested for neuroprotective properties in cell-based models using a neuroblastoma cell line (SHSY) and thrombin as a stressor. Thrombin was used as a cell death inducer in cell-based models for hemorrhagic brain injury. SHSY cells were challenged by 100 U/ml thrombin and after 3 hrs treated with different concentrations of synthesized compounds. […] Cell death is observed through fluorescence.
as §3

HMC3 cells [5] = assay: Scratch wound assay (IncuCyte) of microglial migration and proliferation; format: cell-based, human; settings: LPS 200 ng/ml
Method: HMC3 cells were seeded onto a poly-D-lysine hydrobromidecoated-coated 96-well culture plate and placed overnight in a 37° C. IncuCyte S3. WoundMaker was used to simultaneously create wounds in all wells and then LPS (200 ng/ml) was added to wounded cells except control group. After 3 h cells were treated with DMSO (control) or SZ-3 (5 μM). The wound images were taken at 2 h intervals for 58 h. Data were processed and analyzed by using IncuCyte software.
In response to brain injury, microglia transform into an activated state and migrate to the damaged area. This migration leads to an accumulation of activated microglia around the injury site resulting in vicious cycle of microglial activation and further release of inflammatory cytokines. To elucidate whether SZ-3 can stop or reduce the migration of activated microglial cells towards the injury site, a scratch wound assay was performed. At different time intervals, wound confluence, relative wound, and wound width metrics were assayed to analyze the migration of the microglial cells.
HMC3 cells (30,000 cells/well) were seeded onto a poly-D-lysine hydrobromidecoated-coated 96-well culture plate (corning) and placed overnight in a 37° C. IncuCyte S3 (Essen BioScience) supplied with 5% CO2. WoundMaker (Essen BioScience) was used to simultaneously create wounds in all wells then washed twice with culture medium. LPS (200 ng/ml) was added to wounded cells except control group immediately after the wash. 3 h later cells were treated with DMSO (control) or SZ-3 (5 μM). The wound images were taken at 2 h intervals for 72 h. Data were processed and analyzed by using IncuCyte software.

SHSY cells [6] = assay: Thrombin-induced cell death in SHSY cells (MTT); format: cell-based, human; settings: thrombin 100 U/ml
Method: as §4, §3

cofilin [7] = assay: WB of cofilin in thrombin-challenged HMC3 cells; format: cell-based, human; settings: thrombin 100 U/ml
Method: as §2
(§5) WB was used to assay the expression levels of cofilin, phosphocofilin, and NF-κB. […] Without wishing to be bound by theory, the role of phosphocofilin is not fully understood, but it is believed that it is decreased in stress conditions and its restoration is beneficial.
(§6) HMC3 cells were cultured in DMEM/F12 medium supplemented with 5% horse serum (HS), 10% fetal bovine serum (FBS), and 1% penicillin/streptomycin. Cells were stimulated with 100 U/ml thrombin from bovine plasma (Sigma) and treated without (vehicle) or with different concentrations of SZ-3.
(§7) Cells were harvested and washed with ice-cold lysis buffer (250 mM sucrose, 1.5 mM MgCl2, 10 mM KCl, 20 mM HEPES 7.6 pH, 1 mM of dithiothreitol, 1 mM phenylmethylsulfonyl fluoride, 50 mM NaF, 10 mM sodium orthovanadate, 20 mM sodium pyrophosphate, and protease inhibitors) for 15 min then supplemented with 5% of Nonidet P-40 for 2 min. Cytosolic fraction was collected from the supernatant after centrifugation at 14,000 g for 10 min. Bradford reagent (Bio-Rad Laboratories) was used to determine the protein concentrations, and equal amounts of samples were loaded onto 10-15% SDS-polyacrylamide gels, separated by electrophoresis, and transferred to PVDF membranes. Membranes were blocked and incubated with primary antibodies; cofilin, phosphocofilin, and NF-kB (Cell Signaling Technology) at 4° C. overnight. Membranes were incubated for 1 h at room temperature with horseradish peroxidase-conjugated secondary antibody (1:5000; Jackson ImmunoResearch) after washing. Glyceraldehyde 3-phosphate dehydrogenase (GAPDH) or beta-actin were used as the loading control, and band intensity analyzed using Bio-Rad Chemi-Doc XRS Image Lab Software.

[8] = test system: NO release from HMC3 cells; assay: Griess assay for NO release from LPS-challenged HMC3 cells; format: cell-based, human
Method: as §1
(§8) After hemorrhage, activated microglia release proinflammatory mediators such as cytokines, chemokines, and nitric oxide (NO) leading to secondary injury which may be worse than the initial insult and may result in severe neurological deficits and death. In order to test whether the synthesized compound will reduce or stop microglial activation and inflammation after hemorrhage, whether the compound poses toxicity to microglia was first assessed. Human microglial cell line (HMC3) was challenged or activated with lipopolysaccharide (LPS) ([…]) and treated with different concentrations of the SZ-3 (10 and 5 μM) concurrently. CellTiter-Glo luminescent assay was used for cell viability; Griess reagent assay was used for NO release and ELISA was used for TNF-α estimations.
Next, a NO release assay was performed to determine if SZ-3 can reduce the NO release. […] Next, whether the major inflammatory cytokine TNF-α is reduced with the SZ-3 treatment was evaluated. As a consequence of microglial activation, TNF-α levels are increased, and the same pattern was observed when cells were challenged with LPS. There was a significant increase in TNF-α after LPS challenge.
NO was indirectly assayed through the measurement of nitrite by mixing a sample of culture medium with an equal volume of Griess reagent (0.3% naphthylethylenediamine dihydrochloride, 3% sulfanilamide, 8% phosphoric acid) and reading at 540 nm.

HMC3 cells [9] = assay: Cell viability of LPS-challenged HMC3 cells (CellTiter-Glo Luminescent assay); format: cell-based; settings: LPS 0.1 μg/mL, SZ-3 5-10 μM concurrently
Method: as §1, §8
All types of cells used in these examples were assayed for viability and proliferation after 24-72 h using the MTT or CellTiter-Glo Luminescent assay Promega (Madison, Wis.). Cells after treatment were incubated with MTT reagent for 3 h in 5% CO2 at 37° C. […] Absorbance was read at 570 nm to quantify cell viability. […]

NF-κB = assay: WB of NF-κB in thrombin-challenged HMC3 cells; format: cell-based, human; settings: thrombin 100 U/ml, SZ-3 10, 5 μM after 3 h, WB after 24 h
Method: as §2, §5, §6
(§9) Cells were harvested and washed with ice-cold lysis buffer (250 mM sucrose, 1.5 mM MgCl2, 10 mM KCl, 20 mM HEPES 7.6 pH, 1 mM of dithiothreitol, 1 mM phenylmethylsulfonyl fluoride, 50 mM NaF, 10 mM sodium orthovanadate, 20 mM sodium pyrophosphate, and protease inhibitors) for 15 min then supplemented with 5% of Nonidet P-40 for 2 min. […] Glyceraldehyde 3-phosphate dehydrogenase (GAPDH) or beta-actin were used as the loading control, and band intensity analyzed using Bio-Rad Chemi-Doc XRS Image Lab Software.

phosphocofilin = assay: WB of phosphocofilin in thrombin-challenged HMC3 cells; format: cell-based, human; settings: thrombin 100 U/ml, SZ-3 10, 5 μM after 3 h, WB after 24 h
Method: as §2, §5, §6, §9

cofilin [10] = assay: WB analysis of cofilin expression in thrombin-challenged SHSY cells; format: cell-based, human; settings: thrombin 100 U/ml, SZ-3 5 μM after 3 h, WB after 24 h
Method: as §4
as §7, with “Membranes were blocked and incubated with primary antibodies; cofilin, phosphocofilin, and NF-kB (Cell Signaling Technology) at 4° C. overnight. Membranes were incubated for 1 h at room temperature with horseradish peroxidase-conjugated secondary antibody (1:5000; Jackson ImmunoResearch) after washing.” left out

mice with hemorrhage = assay: Experimental hemorrhage in mice by collagenase injection into the striatum; format: in vivo
Method: Mice were subjected to experimental hemorrhage by injecting collagenase into the striatum. After 3 h of collagenase injection, mice were treated with two concentrations of SZ-3 (1 and 10 mg/kg, i.p.) followed by 12 hourly injections until day 3. Mice were evaluated for baseline rotarod and grip strength 24 h prior and after hemorrhage and then after every 24 hs for three days. N=12 per group. FIG. 12A depicts a timeline of the experiment, and photographs of the mice.
The top column is Sham, the second column is vehicle, the third column is SZ-3 (1 mg/kg), and the fourth column is SZ-3 (10 mg/kg).
Finally, it was desired to elucidate if treatment with SZ-3 can mitigate the hemorrhage induced behavioral deficits. Hemorrhage was induced in mice, and the mice were then treated with SZ-3. Mice were subjected to experimental hemorrhage by injecting collagenase into the mice striatum. Collagenase model simulates the hemorrhage by inducing vessel damage resulting in localized hematomas. This model is widely used in hemorrhagic stroke research.
Mice were treated with two concentrations of SZ-3 (1 and 10 mg/kg, i.p;) immediately after 3 h of hemorrhage and then after every 12 h for 3 days (FIG. 12A). […] Normally, the mice are substantially paralyzed a short time after the stroke.

## CC(C)(C)c1ccc(O)c(CN(Cc2cc(C(C)(C)C)ccc2O)C2CCC(NC(N)=O)CC2)c1 (centres unmarked) [SZ-3, 4-{bis[(5-tert-butyl-2-hydroxyphenyl)methyl]amino}cyclohexyl urea]
TNF-α
  TNF-α levels: significantly reduced TNF-α levels; also recorded: significantly reduced NO and TNF-α release
HMC3 cells [1]
  cell death induced by thrombin: significantly restored cell death induced by thrombin
[2]
  solubility: no solubility issues
Cofilin [3]
  severing and depolymerizing activity of cofilin on F-actin: prevented the severing and depolymerizing activity of cofilin; also recorded: binds to cofilin
SHSY cells [4]
  toxicity in SHSY cells: did not show any signs of toxicity; also recorded: No toxicity was observed
HMC3 cells [5]; SZ-3 5 μM after 3 h
  distance between the migrating edges of the wound (wound width): in between
  microglial migration and proliferation: reduces the proliferation and migration of the microglial cells; also recorded: reduced microglial migration and proliferation
HMC3 cells [5]; SZ-3 5 μM after 3 h, first 24 h
  confluence of cells within the wound region: less with SZ-3 treated cells relative to non-treated cells
HMC3 cells [5]; SZ-3 5 μM, after the 24 h of treatment
  cell density in the wound area relative to outside the wound area: slow increase rate in cell density in the wound area
SHSY cells [6]; SZ-3 10 μM
  cell death induced by thrombin, best concentration: showing the best effect
SHSY cells [6]; SZ-3 20, 10, 5 μM after 3 h, MTT after 24 h
  cell death induced by thrombin: significantly reversed the cell death; also recorded: significantly restored cell death induced by thrombin
Cofilin [7]; SZ-3 5 μM (FIG. 11 legend)
  cofilin expression: reduced by treatment with 5 μM of SZ-3
Cofilin [7]; SZ-3 10 μM
  cofilin level: significant decrease in cofilin level was observed only in 10 μM
Cofilin [7]; SZ-3 10, 5 μM after 3 h, WB after 24 h
  cofilin expression level: significantly reduced
[8]; LPS 0.1 μg/mL, different concentrations of SZ-3
  NO release: significantly reduced NO
[8]; LPS, SZ-3 5 μM, p<0.001
  NO release: significantly reduced NO release
[8]; LPS, SZ-3 10 μM
  NO release: significance was at p<0.01
HMC3 cells [9]
  toxicity in LPS-challenged HMC3 cells: No cell toxicity was observed
NF-κB
  NF-κB expression level: significantly reduced
phosphocofilin
  phosphocofilin expression level: reversed the expression levels
Cofilin [10]
  cofilin expression: significantly reduced cofilin expression
Mice with hemorrhage; FIG. 13, SZ-3 1 mg/kg and 10 mg/kg versus vehicle, fluorescence
  cell death after experimental ICH: barely any cell death; also recorded: reduces cell death after experimental ICH
Mice with hemorrhage; SZ-3 1 and 10 mg/kg i.p. 3 h after hemorrhage then every 12 h for 3 days, day 2 and 3
  motor function assessed by rotarod: significantly reversed
Mice with hemorrhage; SZ-3 1 and 10 mg/kg i.p., after hemorrhage
  grip strength: showed enhanced grip strength
Mice with hemorrhage; mice treated with SZ-3
  lesions in the mice: no lesions formed
Mice with hemorrhage; sham mice, no induced hemorrhage
  grip of sham mice: improved the grip of the mice even without hemorrhage
